Assay results published in PubChem BioAssay (NCI).
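Exposure lasted 48 hours, with cells grown in 96-well plates and compounds tested at five concentrations. TGI marks complete inhibition of growth.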

Experiments:
Assay in all cases: growth of human tumour cells (NCI), 48 h
UACC-62 melanoma = system: UACC-62 melanoma
OVCAR-8 ovarian = system: OVCAR-8 ovarian
IGROV1 ovarian = system: IGROV1 ovarian
EKVX NSCLC = system: EKVX NSCLC
PC-3 prostate = system: PC-3 prostate
MDA-MB-435 = system: MDA-MB-435
HCT-116 colon = system: HCT-116 colon
KM12 colon = system: KM12 colon
CCRF-CEM leukemia = system: CCRF-CEM leukemia
RXF 393 renal = system: RXF 393 renal
OVCAR-4 ovarian = system: OVCAR-4 ovarian
MDA-MB-231 breast = system: MDA-MB-231 breast
NCI/ADR-RES ovarian = system: NCI/ADR-RES ovarian
A498 renal = system: A498 renal
SK-MEL-2 melanoma = system: SK-MEL-2 melanoma
HCC-2998 colon = system: HCC-2998 colon
SK-MEL-28 melanoma = system: SK-MEL-28 melanoma
MOLT-4 leukemia = system: MOLT-4 leukemia
DU-145 prostate = system: DU-145 prostate
SF-295 CNS = system: SF-295 CNS
ACHN renal = system: ACHN renal
SR leukemia = system: SR leukemia
HT29 colon = system: HT29 colon
HCT-15 colon = system: HCT-15 colon
HOP-92 NSCLC = system: HOP-92 NSCLC
SF-268 CNS = system: SF-268 CNS
A549 NSCLC = system: A549 NSCLC
TK-10 renal = system: TK-10 renal
COLO 205 colon = system: COLO 205 colon
NCI-H460 lung = system: NCI-H460 lung
MDA-N = system: MDA-N
SNB-75 CNS = system: SNB-75 CNS
SN12C renal = system: SN12C renal
786-0 renal = system: 786-0 renal
BT-549 breast = system: BT-549 breast
SK-MEL-5 melanoma = system: SK-MEL-5 melanoma
SK-OV-3 ovarian = system: SK-OV-3 ovarian
T-47D breast = system: T-47D breast
OVCAR-3 ovarian = system: OVCAR-3 ovarian
SF-539 CNS = system: SF-539 CNS
UACC-257 melanoma = system: UACC-257 melanoma
NCI-H23 lung = system: NCI-H23 lung
MALME-3M melanoma = system: MALME-3M melanoma
LOX IMVI melanoma = system: LOX IMVI melanoma
HS 578T breast = system: HS 578T breast
MCF7 breast = system: MCF7 breast
HOP-62 NSCLC = system: HOP-62 NSCLC
UO-31 renal = system: UO-31 renal
NCI-H522 lung = system: NCI-H522 lung
U251 CNS = system: U251 CNS
SW-620 colon = system: SW-620 colon
RPMI-8226 leukemia = system: RPMI-8226 leukemia
CAKI-1 renal = system: CAKI-1 renal
NCI-H226 lung = system: NCI-H226 lung
OVCAR-5 ovarian = system: OVCAR-5 ovarian
K-562 leukemia = system: K-562 leukemia
HL-60(TB) leukemia = system: HL-60(TB) leukemia
M14 melanoma = system: M14 melanoma
SNB-19 CNS = system: SNB-19 CNS

CC(=O)OC[C@H]1On2nnnc2[C@H](OC(C)=O)[C@@H](OC(C)=O)[C@@H]1OC(C)=O was tested, and the TGI (UACC-62 melanoma) was > 100 µM, the TGI (OVCAR-8 ovarian) was > 100 µM and the TGI (IGROV1 ovarian) was > 100 µM. For the same compound, the TGI (EKVX NSCLC) was > 100 µM, the TGI (PC-3 prostate) was > 100 µM and the TGI (MDA-MB-435) was > 100 µM. The TGI (HCT-116 colon) was > 100 µM, the TGI (KM12 colon) was > 100 µM and the TGI (CCRF-CEM leukemia) was > 100 µM. For the same compound, the TGI (RXF 393 renal) was > 100 µM, the TGI (OVCAR-4 ovarian) was > 100 µM and the TGI (MDA-MB-231 breast) was > 100 µM. The TGI (NCI/ADR-RES ovarian) was > 100 µM, the TGI (A498 renal) was > 100 µM and the TGI (SK-MEL-2 melanoma) was > 100 µM. The TGI (HCC-2998 colon) was > 100 µM, the TGI (SK-MEL-28 melanoma) was > 100 µM and the TGI (MOLT-4 leukemia) was > 100 µM. For the same compound, the TGI (DU-145 prostate) was > 100 µM, the TGI (SF-295 CNS) was > 100 µM and the TGI (ACHN renal) was > 100 µM. The TGI (SR leukemia) was > 100 µM, the TGI (HT29 colon) was > 100 µM and the TGI (HCT-15 colon) was > 100 µM. The TGI (HOP-92 NSCLC) was > 100 µM, the TGI (SF-268 CNS) was > 100 µM and the TGI (A549 NSCLC) was > 100 µM. For the same compound, the TGI (TK-10 renal) was > 100 µM, the TGI (COLO 205 colon) was > 100 µM and the TGI (NCI-H460 lung) was > 100 µM. The TGI (MDA-N) was > 100 µM, the TGI (SNB-75 CNS) was > 100 µM and the TGI (SN12C renal) was > 100 µM. For the same compound, the TGI (786-0 renal) was > 100 µM, the TGI (BT-549 breast) was > 100 µM and the TGI (SK-MEL-5 melanoma) was > 100 µM. The TGI (SK-OV-3 ovarian) was > 100 µM, the TGI (T-47D breast) was > 100 µM and the TGI (OVCAR-3 ovarian) was > 100 µM. For the same compound, the TGI (SF-539 CNS) was > 100 µM, the TGI (UACC-257 melanoma) was > 100 µM and the TGI (NCI-H23 lung) was > 100 µM. The TGI (MALME-3M melanoma) was > 100 µM, the TGI (LOX IMVI melanoma) was > 100 µM and the TGI (HS 578T breast) was > 100 µM. For the same compound, the TGI (MCF7 breast) was > 100 µM, the TGI (HOP-62 NSCLC) was > 100 µM and the TGI (UO-31 renal) was > 100 µM. The TGI (NCI-H522 lung) was > 100 µM, the TGI (U251 CNS) was > 100 µM and the TGI (SW-620 colon) was > 100 µM. For the same compound, the TGI (RPMI-8226 leukemia) was > 100 µM, the TGI (CAKI-1 renal) was > 100 µM and the TGI (NCI-H226 lung) was > 100 µM. The TGI (OVCAR-5 ovarian) was > 100 µM, the TGI (K-562 leukemia) was > 100 µM and the TGI (HL-60(TB) leukemia) was > 100 µM.
In the case of O=c1c2nc(-c3ccccc3)oc2n(-c2ccccc2)c(=O)n1-c1ccccc1, the TGI (UACC-62 melanoma) is reported as > 46.4 µM, the TGI (OVCAR-8 ovarian) is reported as 44.6 µM and the TGI (IGROV1 ovarian) is reported as 41 µM. The TGI (EKVX NSCLC) was > 46.4 µM, the TGI (PC-3 prostate) was > 46.4 µM and the TGI (MDA-MB-435) was > 46.4 µM. For the same compound, the TGI (HCT-116 colon) was > 46.4 µM, the TGI (KM12 colon) was > 46.4 µM and the TGI (CCRF-CEM leukemia) was > 46.4 µM. For the same compound, the TGI (RXF 393 renal) was 34.8 µM, the TGI (OVCAR-4 ovarian) was 36.6 µM and the TGI (MDA-MB-231 breast) was > 46.4 µM. For the same compound, the TGI (NCI/ADR-RES ovarian) was > 31.6 µM, the TGI (A498 renal) was > 31.6 µM and the TGI (SK-MEL-2 melanoma) was > 46.4 µM. The TGI (HCC-2998 colon) was > 46.4 µM, the TGI (SK-MEL-28 melanoma) was > 100 µM and the TGI (MOLT-4 leukemia) was > 46.4 µM. For the same compound, the TGI (DU-145 prostate) was > 100 µM, the TGI (SF-295 CNS) was 42.4 µM and the TGI (ACHN renal) was > 46.4 µM. For the same compound, the TGI (SR leukemia) was > 31.6 µM, the TGI (M14 melanoma) was > 46.4 µM and the TGI (HT29 colon) was > 46.4 µM. The TGI (HCT-15 colon) was > 46.4 µM, the TGI (HOP-92 NSCLC) was 24.4 µM and the TGI (SF-268 CNS) was 39.3 µM. For the same compound, the TGI (A549 NSCLC) was > 46.4 µM, the TGI (TK-10 renal) was 21.5 µM and the TGI (COLO 205 colon) was > 46.4 µM. For the same compound, the TGI (NCI-H460 lung) was > 46.4 µM, the TGI (MDA-N) was > 46.4 µM and the TGI (SNB-75 CNS) was 31.2 µM. The TGI (SN12C renal) was > 46.4 µM, the TGI (786-0 renal) was 31.7 µM and the TGI (BT-549 breast) was > 46.4 µM. For the same compound, the TGI (SK-MEL-5 melanoma) was > 31.6 µM, the TGI (SNB-19 CNS) was 36 µM and the TGI (SK-OV-3 ovarian) was 40.1 µM. For the same compound, the TGI (T-47D breast) was > 46.4 µM, the TGI (OVCAR-3 ovarian) was > 46.4 µM and the TGI (SF-539 CNS) was 35.8 µM. The TGI (UACC-257 melanoma) was > 46.4 µM, the TGI (NCI-H23 lung) was > 46.4 µM and the TGI (MALME-3M melanoma) was > 31.6 µM. The TGI (LOX IMVI melanoma) was > 46.4 µM, the TGI (HS 578T breast) was 39.5 µM and the TGI (MCF7 breast) was > 46.4 µM. The TGI (HOP-62 NSCLC) was 29.7 µM, the TGI (UO-31 renal) was > 31.6 µM and the TGI (NCI-H522 lung) was 39.1 µM. The TGI (U251 CNS) was 33.1 µM, the TGI (SW-620 colon) was > 46.4 µM and the TGI (RPMI-8226 leukemia) was > 46.4 µM. For the same compound, the TGI (CAKI-1 renal) was 18.2 µM, the TGI (NCI-H226 lung) was 44.1 µM and the TGI (OVCAR-5 ovarian) was > 46.4 µM. The TGI (K-562 leukemia) was > 46.4 µM and the TGI (HL-60(TB) leukemia) was > 100 µM.
